Laboratory results from patent publication US20240368163A1, “COMPOUNDS AND METHODS FOR MODULATING SPLICING” (REMIX THERAPEUTICS INC., priority 2021, published 2024).
pIC50: −log10 of the molar value.

What was measured:
Assay type in all cases: cell-based, human
MYB [1] = assay: HiBiT protein abundance assay, MYB; settings: Homo sapiens, K562, 24 h, modified K562 cells
Method: (§1) Compounds described herein were used to screen for effects on quantitative protein abundance using a HiBit assay system (Promega). Quantitative protein abundance was determined by measuring the protein levels of HiBit-tagged protein targets expressed in cell culture via luminescence using the Nano-Glo HiBiT Lytic Detection System, which uses a split complementation assay format to reconstitute NanoBiT enzyme to generate a luminescent signal. A protein abundance assay was developed such that endogenous protein targets could be modified with the HiBiT peptide tag and their abundance could be assessed after compound treatment. Briefly, K562 cell lines containing a HiBiT-modification were treated with various compounds described herein (e.g., compounds of Formulas (I), (II), or (III)). After treatment for 24 hours, the protein abundance of a specific target was determined by measuring luminescence.
(§2) Cells were maintained in IMIDM with 10% FBS. Before the assay, cells were diluted with […] growth media (IMIDM+[…] media) and were seeded in a 384-well plate at a density of 10000 cells/well (for each cell line listed in Table 12). Each compound was prepared as a 10-point 3-fold serial dilution in DMSO with the top dose at a final concentration of 10 μM in the well. Unmodified K562 cells were added at the previously specified density with DMSO to serve as an assay baseline and positive control (PC) and DMSO only with the respective modified cell lines was added to the negative control (NC) columns. Final DMSO concentration was kept at or below 0.25%. Treated cell plates were placed in an incubator at 37° C. with 5% CO2 for 24 hours. After 24 hours, 25 μL of Complete HiBit Lytic reagent was added to each well at room temperature (e.g. one plate requiring 10 mL Lytic Buffer, 100 μL LgBiT Protein, 200 μL Lytic Substrate), shaken for 5 minutes at 600 RPM, then left to sit for 10 minutes for signal to stabilize before reading on a Spark Cyto plate reader (Tecan) with a 500 ms measurement time.
(§3) To determine compound effects on protein abundance of each target in Table 12, the percent response for each respective cell line was calculated at each compound concentration as follows:
(§4) For the normalized response at each concentration, a four-parameter logistical regression was fit to the data and the response was interpolated at the 50% value to determine a concentration for protein abundance at 50% (IC50) the untreated control.

HTT = assay: HiBiT protein abundance assay, HTT; settings: modified K562 cells
Method: as §1, §2, §3, §4

Target C = assay: HiBiT protein abundance assay, Target C; settings: Homo sapiens, K562, 24 h, modified K562 cells
Method: • Promega Nano-Glo HiBiT Lytic Detection System (cat #N3030) • Coming 384-well TC-treated microplates (cat #3570) • Synthego Engineered Cells Knock-In Clones
as §2, §3, §4

MYB [2] = assay: Splicing RT-qPCR assay, MYB mRNA canonical junction (CJ) and alternative junction (AJ); settings: for AC50: increase in AJ mRNA
Method: Compounds described herein were used to modulate RNA transcript abundance in cells. The expression of a target mRNA was measured by detecting the formation of an exon-exon junction in the canonical transcript (CJ). A compound mediated exon-inclusion event was detected by observing an increase in formation of a new junction with an alternative exon (AJ). Real-time qPCR assays were used to detect these splicing switches and interrogate the potency of various compounds towards different target genes. A high-throughput real time quantitative PCR (RT-qPCR) assay was developed to measure these two isoforms of the mRNA (CJ and AJ) for exemplary genes, such as HTT, SMN2, and MYB, together with a control housekeeping gene, GAPDH or GUSB or PPIA, used for normalization. Briefly, the A673 or K562 cell line was treated with various compounds described herein (e.g., compounds of Formula (I)). After treatment, the levels of the HTT, MYB, or SMN2 mRNA targets were determined from each sample of cell lysate by cDNA synthesis followed by qPCR.
The A673 cell line was cultured in DMEM with 10% FBS. Cells were diluted with full growth media and plated in a 96-well plate (15,000 cells in 100 ul media per well). The plate was incubated at 37° C. with 5% CO2 for 24 hours to allow cells to adhere. An 11-point 3-fold serial dilution of the compounds was made in DMSO then diluted in media in an intermediate plate. Compounds were transferred from the intermediate plate to the cell plate with the top dose at a final concentration of 10 uM in the well. Final DMSO concentration was kept at or below 0.25%. The cell plate was returned to the incubator at 37° C. with 5% CO2 for an additional 24 hours.
The K562 cell line was cultured in IMDM with 10% FBS. For K562, cells were diluted with full growth media and plated in either a 96-well plate (50,000 cells in 50 uL media per well) or a 384-well plate (8,000-40,000 cells in 45 uL media per well). An 11-point 3-fold serial dilution of the compounds were made in DMSO then diluted in media in an intermediate plate. Compound was transferred from the intermediate plate to the cell plate with the top dose at a final concentration of 10 uM in the well. Final DMSO concentration was kept at or below 0.25%. Final volume was 100 uL for 96-well plate and 50 uL for 384-well plate. The cell plate was then placed in an incubator at 37° C. with 5% CO2 for 24 hours.
The cells were then gently washed with 50 uL-100 uL cold PBS before proceeding to addition of lysis buffer. 30 uL-50 μL of room temperature lysis buffer with DNAse I (and optionally RNAsin) was added to each well. Cells were shaken/mixed thoroughly at room temperature for 5-10 minutes for lysis to take place and then 3 uL-5 μL of room temperature stop solution was added and wells were shaken/mixed again. After 2-5 minutes, the cell lysate plate was transferred to ice for RT-qPCR reaction setup. The lysates could also be frozen at −80° C. for later use.
In some cases, a direct lysis buffer was used. An appropriate volume of 3× lysis buffer (10 mM Tris, 150 mM NaCl, 1.5%-2.5% Igepal and 0.1-1 U/uL RNAsin, pH 7.4) was directly added to either K562 or A673 cells in media and mixed by pipetting 3 times. The plates were then incubated at room temperature with shaking/rocking for 20-50 minutes to allow for lysis to take place. After this time, the cell lysate plate was transferred to ice to set up for the RT-qPCR reactions. The lysates could also be frozen at −80° C. for later use.
To set up 10 uL RT-qPCR reactions, cell lysates were transferred to 384-well qPCR plates containing the master mix according to the table below. The plates were sealed, gently vortexed, and spun down before the run. The volumes were adjusted accordingly in some instances where the reaction was carried in 20 μL. The table below summarizes the components of the RT-qPCR reactions:
The RT-qPCR reaction was performed using a QuantStudio (ThermoFisher) under the following fast cycling conditions. […]

[3] = Homo sapiens, K562, 24 h, Table 13A
[4] = Homo sapiens, 24 h, decrease in CJ mRNA, A673 or K562 cells, 24 hours treatment, RT-qPCR, read-out: MYB CJ IC50
[5] = Homo sapiens, 24 h, A673 or K562 cells, 24 hours treatment, RT-qPCR
[6] = Homo sapiens, RT-qPCR panel, canonical junction mRNA, compound concentration having 50% response in CJ decrease, read-out: MYB IC50 (decrease in CJ mRNA levels)
[7] = Homo sapiens, K562, 24 h, Table 13B

Row | Structure (SMILES) | pIC50 (MYB [1]; Table 13A) | pIC50 (HTT; [3]) | pIC50 (Target C; Table 13A) | also measured
1 | C[C@@H]1C[C@H](N(C)c2ccc(-c3ccc(-c4cn[nH]c4)c4cn[nH]c34)nn2)CCN1 [Compound 101] | 5.00 to 6.00 | 5.00 to 6.00 | 5.00 to 6.00 | –
2 | C[C@@H]1C[C@H](N(C)c2ccc(-c3ccc(-n4cccn4)c4cn[nH]c34)nn2)CCN1 [Compound 103] | 5.00 to 6.00 | 5.00 to 6.00 | 5.00 to 6.00 | –
3 | C[C@@H]1C[C@@H](N(C)c2ccc(-c3ccc(-c4cn[nH]c4)c4cc[nH]c34)nn2)CCN1 [Compound 107] | 5.00 to 6.00 | 5.00 to 6.00 | 5.00 to 6.00 | –
4 | C[C@H]1C[C@@H](N(C)c2ccc(-c3ccc(-c4cn[nH]c4)c4cc[nH]c34)nn2)CCN1 [Compound 108] | < 5.00 | < 5.00 | < 5.00 | pIC50 (MYB [2]; [4]): < 5.00; AC50 (MYB [2]; [5]): > 10 µM; pIC50 (MYB [2]; [6]): < 5.00
5 | C[C@@H]1C[C@@H](N(C)c2ccc(-c3ccc(-n4cccn4)c4cc[nH]c34)nn2)CCN1 [Compound 110] | 5.00 to 6.00 | 5.00 to 6.00 | 5.00 to 6.00 | –
6 | CN(c1ccc(-c2ccc(-c3cn[nH]c3)c3cc[nH]c23)nn1)[C@@H]1C[C@H]2CC[C@@H](C1)N2 [Compound 112] | 5.00 to 6.00 | 5.00 to 6.00 | 5.00 to 6.00 | pIC50 (MYB [2]; [4]): 5.00 to 6.00; AC50 (MYB [2]; [5]): 1 to 10 µM; pIC50 (MYB [2]; [6]): 5.00 to 6.00
7 | CN(c1ccc(-c2ccc(-c3cn[nH]c3)c3c2NC(=O)C3)nn1)[C@@H]1C[C@H]2CC[C@@H](C1)N2 [Compound 123] | < 5.00 | < 5.00 | < 5.00 | –
8 | CC1(C)CC(Oc2ccc(-c3ccc(-n4cccn4)c4cn[nH]c34)nn2)CC(C)(C)N1 [Compound 151] | 6.00 to 7.00 | 6.00 to 7.00 | 6.00 to 7.00 | –
9 | c1cnn(-c2ccc(-c3ccc(O[C@@H]4C[C@H]5CC[C@@H](C4)N5)nn3)c3[nH]ncc23)c1 [Compound 152] | 6.00 to 7.00 | > 7.00 | > 7.00 | –
10 | CN(c1ccc(-c2ccc(-c3cn[nH]c3)c3nc[nH]c23)nn1)[C@@H]1C[C@H]2CC[C@@H](C1)N2 [Compound 163] | < 5.00 | < 5.00 | < 5.00 | –
11 | CN(c1ccc(-c2ccc(-c3cn(C)nn3)c3cn[nH]c23)nn1)[C@@H]1C[C@H]2CC[C@@H](C1)N2 [Compound 165] | 5.00 to 6.00 | 5.00 to 6.00 | 5.00 to 6.00 | –
12 | c1nc2c(-c3cn[nH]c3)ccc(-c3ccc(O[C@@H]4C[C@H]5CCC[C@@H](C4)N5)nn3)c2s1 [Compound 209] | 6.00 to 7.00 | > 7.00 | > 7.00 | –
13 | c1nc2c(-c3cn[nH]c3)ccc(-c3ccc(N4C[C@H]5CNC[C@H]5C4)nn3)c2s1 [Compound 282] | 5.00 to 6.00 | 5.00 to 6.00 | < 5.00 | –
14 | [2H]C([2H])([2H])N(c1ccc(-c2ccc(-c3cn[nH]c3)c3cn[nH]c23)nn1)[C@@H]1C[C@H]2CC[C@@H](C1)N2 [Compound 299] | > 7.00 | > 7.00 | > 7.00 | –
15 | Cc1cc(-c2ccc(-c3ccc(N(C)[C@@H]4C[C@H]5CC[C@@H](C4)N5)nn3)c3[nH]ncc23)cnn1 [Compound 383, (exo)-N-methyl-N-{6-[4-(6-methylpyridazin-4-yl)-1H-indazol-7-yl]pyridazin-3-yl}-8-azabicyclo[3.2.1]octan-3-amine] | 5.00 to 6.00 | 5.00 to 6.00 | 5.00 to 6.00 | –
16 | c1nc2c(-c3cn[nH]c3)ccc(-c3ccc(N(C4CC4)[C@@H]4C[C@H]5CC[C@@H](C4)N5)nn3)c2s1 [Compound 389, (exo)-N-cyclopropyl-N-{6-[4-(1H-pyrazol-4-yl)-1,3-benzothiazol-7-yl]pyridazin-3-yl}-8-azabicyclo [3.2.1] octan-3-amine] | 6.00 to 7.00 | 6.00 to 7.00 | > 7.00 | –
17 | c1nc2c(-c3cn[nH]c3)ccc(-c3cnc(N4CCN[C@H](C5CC5)C4)nn3)c2s1 [Compound 553] | – | – | – | pIC50 (MYB [2]; RT-qPCR panel, canonical junction mRNA, compound concentration having 50% response in CJ decrease, read-out: MYB IC50 (decrease in CJ mRNA levels)): 5.00 to 6.00; pIC50 (HTT; Table 13A, 24 hours): 5.00 to 6.00
18 | CN(c1ccc(-c2ccc(-c3cn[nH]c3)c(=O)[nH]2)nn1)[C@@H]1C[C@H]2CC[C@@H](C1)N2 [Compound 904] | – | – | – | pIC50 (MYB [1]; Table 13B): < 5.00; pIC50 (HTT; [7]): < 5.00; pIC50 (Target C; Table 13B): < 5.00
19 | CN(c1ccc(-c2ccc(-n3cccn3)c(=O)[nH]2)nn1)[C@@H]1C[C@H]2CC[C@@H](C1)N2 [Compound 905] | – | – | – | pIC50 (MYB [1]; Table 13B): 5.00 to 6.00; pIC50 (HTT; [7]): 6.00 to 7.00; pIC50 (Target C; Table 13B): 6.00 to 7.00
